Measured values: ChEMBL document CHEMBL3045486, “Potent, Selective Adenosine A1 Agonists as Potential Analgesics” (Med Chem Res, 2004)

What was measured:
[1] = target: T1, Adenosine receptor A1 (Homo sapiens) (UniProt P30542); test: Intrinsic efficacy at Homo sapiens (human) adenosine A1 receptor expressed in CHO cells assessed as increase in intracellular calcium level by FLIPR assay relative to NECA; assay type: functional, cell-based
T1 sequence (whole entry): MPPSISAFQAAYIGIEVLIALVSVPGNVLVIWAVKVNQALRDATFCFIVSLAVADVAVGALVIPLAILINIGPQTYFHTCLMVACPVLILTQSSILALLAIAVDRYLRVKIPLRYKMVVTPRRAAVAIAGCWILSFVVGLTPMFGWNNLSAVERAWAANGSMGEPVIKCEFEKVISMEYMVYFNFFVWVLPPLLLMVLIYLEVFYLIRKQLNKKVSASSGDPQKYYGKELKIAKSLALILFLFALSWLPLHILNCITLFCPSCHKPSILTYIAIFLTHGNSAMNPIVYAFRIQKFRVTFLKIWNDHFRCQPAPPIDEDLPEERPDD

Adenosine receptor A1 = target: T2, Adenosine receptor A1 (Homo sapiens, UniProt P30542); test: Agonist activity at Homo sapiens (human) adenosine A1 receptor expressed in CHO cells; assay type: cell-based
T2 sequence (P30542 whole entry): T1 sequence (whole entry)

[2] = target: T1, Adenosine receptor A1 (Homo sapiens); test: Agonist activity at Homo sapiens (human) adenosine A1 receptor expressed in CHO cells relative to NECA; assay type: cell-based
[3] = target: T3, Adenosine receptor A2b (Homo sapiens) (UniProt P29275); test: Agonist activity at Homo sapiens (human) adenosine A2b receptor expressed in CHO cells relative to NECA; assay type: cell-based
T3 sequence (whole entry): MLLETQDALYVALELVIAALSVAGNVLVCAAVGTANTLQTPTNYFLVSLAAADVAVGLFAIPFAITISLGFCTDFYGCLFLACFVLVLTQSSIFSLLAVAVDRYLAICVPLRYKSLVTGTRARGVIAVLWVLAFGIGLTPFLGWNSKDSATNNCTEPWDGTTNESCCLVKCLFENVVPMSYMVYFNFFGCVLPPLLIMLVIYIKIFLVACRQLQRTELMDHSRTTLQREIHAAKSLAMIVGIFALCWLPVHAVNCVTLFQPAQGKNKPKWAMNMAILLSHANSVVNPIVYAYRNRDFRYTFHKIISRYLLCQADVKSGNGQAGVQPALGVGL

Adenosine receptor A2a [4] = target: T4, Adenosine receptor A2a (Homo sapiens, UniProt P29274); test: Agonist activity at Homo sapiens (human) adenosine A2a receptor expressed in CHO cells relative to NECA; assay type: cell-based
Adenosine receptor A3 = target: T5, Adenosine receptor A3 (Homo sapiens, UniProt P0DMS8); test: Agonist activity at Homo sapiens (human) adenosine A3 receptor expressed in CHO cells; assay type: cell-based
T5 sequence (P0DMS8 whole entry): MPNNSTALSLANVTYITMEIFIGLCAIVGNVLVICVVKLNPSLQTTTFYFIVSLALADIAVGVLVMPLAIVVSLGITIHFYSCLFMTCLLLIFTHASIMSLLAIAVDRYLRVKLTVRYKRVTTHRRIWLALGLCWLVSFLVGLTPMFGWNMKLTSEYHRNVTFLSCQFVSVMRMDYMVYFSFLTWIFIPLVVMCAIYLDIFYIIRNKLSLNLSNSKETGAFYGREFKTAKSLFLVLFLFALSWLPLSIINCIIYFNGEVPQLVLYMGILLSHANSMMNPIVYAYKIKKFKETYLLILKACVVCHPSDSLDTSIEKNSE

[5] = target: T6, Adenosine receptor A3 (Homo sapiens) (UniProt P0DMS8); test: Agonist activity at Homo sapiens (human) adenosine A3 receptor expressed in CHO cells relative to NECA; assay type: cell-based
T6 sequence (whole entry): T5 sequence (P0DMS8 whole entry)

Adenosine receptor A2a [6] = target: T4, Adenosine receptor A2a; test: Agonist activity at Homo sapiens (human) adenosine A2a receptor expressed in CHO cells; assay type: functional, cell-based
Adenosine receptor A2b = target: T7, Adenosine receptor A2b (Homo sapiens, UniProt P29275); test: Agonist activity at Homo sapiens (human) adenosine A2b receptor expressed in CHO cells; assay type: cell-based
T7 sequence (P29275 whole entry): T3 sequence (whole entry)

T4 sequence (P29274 whole entry): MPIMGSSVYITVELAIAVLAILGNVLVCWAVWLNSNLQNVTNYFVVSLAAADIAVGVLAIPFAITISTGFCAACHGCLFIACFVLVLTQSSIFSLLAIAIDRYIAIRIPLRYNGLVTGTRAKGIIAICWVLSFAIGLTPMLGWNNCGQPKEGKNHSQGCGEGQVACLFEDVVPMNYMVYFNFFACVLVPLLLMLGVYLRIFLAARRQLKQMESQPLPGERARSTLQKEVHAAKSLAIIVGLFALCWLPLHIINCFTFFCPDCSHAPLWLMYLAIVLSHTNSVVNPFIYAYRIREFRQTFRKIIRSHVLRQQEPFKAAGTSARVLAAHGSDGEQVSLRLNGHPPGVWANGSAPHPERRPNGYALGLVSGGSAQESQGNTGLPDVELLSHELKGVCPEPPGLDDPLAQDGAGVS

Structure (SMILES)	Efficacy [1]	Ki (Adenosine receptor A1)	Ratio [2]	Ratio [3]	Ratio (Adenosine receptor A2a [4])	Ki (Adenosine receptor A3)	Ratio [5]	Ki (Adenosine receptor A2a [6])	Ki (Adenosine receptor A2b)
COC[C@H]1O[C@@H](n2cnc3c(Nc4ccc(O)c(F)c4)ncnc32)[C@H](O)[C@@H]1O [GR-190178]	12%	251 nM	12	> 348	725	3160 nM	> 364	> 100000 nM	
O[C@@H]1[C@H](O)[C@@H](CF)O[C@H]1n1cnc2c(NC3CCOCC3)ncnc21	84%	25.1 nM	2.4	> 273	212	2510 nM	> 251	5010 nM	> 100000 nM
OC[C@H]1O[C@@H](n2cnc3c(N[C@H]4CCC[C@@H]4O)ncnc32)[C@H](O)[C@@H]1O [GR-79236]	106%	15.8 nM	1.9	195	445	2510 nM	> 190	25100 nM	31600 nM
